Reference: ChEMBL document CHEMBL1152841, “Conformationally constrained analogues of N'-(4-tert-butylbenzyl)-N-(4-methylsulfonylaminobenzyl)thiourea as TRPV1 antagonists” (Eur J Med Chem, 2009)

Columns and labels:
[1] = target: T1, Transient receptor potential cation channel subfamily V member 1 (Rattus norvegicus, UniProt O35433); assay: Displacement of [3H]resiniferatoxin from rat TRPV1 expressed in CHO cells by scintillation counting; format: cell-based
[2] = target: Transient receptor potential cation channel subfamily V member 1 (Rattus norvegicus) (UniProt O35433); assay: Agonist activity at rat TRPV1 expressed in CHO cells by 45Ca2+ uptake assay relative to capsaicin; format: functional, cell-based
[3] = target: T1, Transient receptor potential cation channel subfamily V member 1; assay: Agonist activity at rat TRPV1 expressed in CHO cells by 45Ca2+ uptake assay; format: functional, cell-based
[4] = target: T1, Transient receptor potential cation channel subfamily V member 1; assay: Antagonist activity at rat TRPV1 expressed in CHO cells assessed as capsaicin-stimulated 45Ca2+ uptake; format: functional, cell-based

T1 sequence (O35433 whole entry): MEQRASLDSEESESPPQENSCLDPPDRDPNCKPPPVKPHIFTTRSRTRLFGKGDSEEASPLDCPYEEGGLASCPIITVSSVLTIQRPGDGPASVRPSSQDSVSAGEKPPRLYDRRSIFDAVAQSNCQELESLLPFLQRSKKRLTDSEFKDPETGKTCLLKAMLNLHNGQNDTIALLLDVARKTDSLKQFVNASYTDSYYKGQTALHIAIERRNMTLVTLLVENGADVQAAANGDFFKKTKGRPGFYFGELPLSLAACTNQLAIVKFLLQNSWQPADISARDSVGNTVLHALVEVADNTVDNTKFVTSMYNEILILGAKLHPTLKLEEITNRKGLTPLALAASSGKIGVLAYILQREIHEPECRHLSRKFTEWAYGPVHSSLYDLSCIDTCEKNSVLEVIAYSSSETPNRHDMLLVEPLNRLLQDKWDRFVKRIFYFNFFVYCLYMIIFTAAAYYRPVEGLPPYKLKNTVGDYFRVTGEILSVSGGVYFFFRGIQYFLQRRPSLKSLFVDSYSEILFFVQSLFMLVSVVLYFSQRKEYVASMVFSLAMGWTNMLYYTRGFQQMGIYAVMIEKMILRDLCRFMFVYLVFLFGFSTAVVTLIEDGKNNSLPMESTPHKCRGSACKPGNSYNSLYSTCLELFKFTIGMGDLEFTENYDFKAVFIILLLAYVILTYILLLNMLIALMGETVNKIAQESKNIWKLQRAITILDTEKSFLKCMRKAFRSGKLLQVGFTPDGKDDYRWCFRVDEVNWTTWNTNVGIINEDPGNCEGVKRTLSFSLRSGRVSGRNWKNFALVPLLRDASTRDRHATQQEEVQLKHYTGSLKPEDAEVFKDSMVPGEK
Sequence of Transient receptor potential cation channel subfamily V member 1 (Rattus norvegicus) (O35433 whole entry): as above

EC50 [3] [nM]	SMILES	Ki [1] [nM]	Activity [2] [%]	Ki [4] [nM]
–	COc1cc2c(cc1NS(C)(=O)=O)CCCC2NC(=S)NCc1ccc(C(C)(C)C)cc1 (centres undefined)	6900	14	–
32.4	COc1cc(CNC(=S)NCc2ccc(C(C)(C)C)cc2)ccc1NS(C)(=O)=O	–	17	–
–	COc1c(NS(C)(=O)=O)ccc2c1CCCC2NC(=S)NCc1ccc(C(C)(C)C)cc1 (centres undefined)	1750	–	4700
–	CC(C)(C)c1ccc(CNC(=S)NC2CCc3cc(NS(C)(=O)=O)ccc32)cc1 (centres undefined)	660	–	740
–	COc1c(NS(C)(=O)=O)ccc2c1CCC2NC(=S)NCc1ccc(C(C)(C)C)cc1 (centres undefined)	1820	–	1690
–	CC(C)(C)c1ccc(CNC(=S)NC2CCCc3cc(NS(C)(=O)=O)ccc32)cc1 (centres undefined)	1590	–	2640
–	COc1cc2c(cc1NS(C)(=O)=O)CCC2NC(=S)NCc1ccc(C(C)(C)C)cc1 (centres undefined)	3370	–	25000
